From patent US20150258104A1, “USE OF N[…] THE TREATMENT OF PAIN” (DemeRX, Inc., priority 2014, published 2015)

Tests used:
[1] = Efficacy in opioid-dependent patients: time to resumption of OST and withdrawal scales (COWS, SOWS, OOWS); format: in vivo, human
Method: The efficacy of noribogaine in humans was evaluated in opioid-dependent participants in a randomized, placebo-controlled, double-blind trial. […] See U.S. application Ser. No. 14/214,157, filed Mar. 14, 2014 and Ser. No. 14/346,655, filed Mar. 21, 2014, which are incorporated herein by reference in their entireties.
Three cohorts of nine (9) subjects (6 administered noribogaine and 3 administered placebo in each cohort) were evaluated for tolerability, pharmacokinetics, and efficacy. Cohort 1 received a single dose of 60 mg noribogaine or placebo. Cohort 2 received a single dose of 120 mg noribogaine or placebo. Cohort 3 received a single dose of 180 mg noribogaine or placebo. […] Headaches were frequent in the placebo and 60 mg noribogaine treatment groups, but were attenuated in the 120 mg and 180 mg dose groups.
Patients were evaluated based on the Clinical Opiate Withdrawal Scale (COWS), Subjective Opiate Withdrawal Scale (SOWS), and Objective Opiate Withdrawal Scale (OOWS) scoring systems over the period of time between administration of noribogaine (or placebo) until resumption of OST. These scales are outlined in Guidelines for the Psychosocially Assisted Pharmacological Treatment of Opioid Dependence, World Health Organization, Geneva (2009), Annex 10, which is incorporated herein by reference in its entirety. The scales measure the intensity of withdrawal symptoms, based on clinical, subjective, and objective indicia.

[2] = Cold pressor test in healthy volunteers; format: in vivo, human
Method: Analgesic effect was assessed based on duration of hand immersion in ice water and on visual analog scale (VAS) pain scores upon hand removal from the water bath.
(§1) Safety and tolerability of noribogaine were tested in the group of volunteers from Example 1. […] Safety evaluations included clinical monitoring, recording of adverse events (AEs), safety laboratory tests, vital signs, ECG telemetry from −2 h to 6 h after dosing, and 12-lead electrocardiograms (ECGs) up to 216 hours post-dosing.

[3] = Treatment emergent adverse events in opioid-dependent patients
[4] = Safety and tolerability of noribogaine in healthy humans; format: in vivo, human
Method: (§2) Pulse oximetry and capnography data were collected continuously using a GE Carescape B650 monitoring system from 2 hours prior to dosing and until six hours after dosing, and thereafter at 12, 24, 48 and 72 hours post-dosing. […] Pupillary miosis was assessed by pupillometry.
as §1

[5] = Pharmacokinetics of noribogaine in healthy volunteers, ascending single oral dose (plasma); details: mean, n = 6; for CL/F: fasted, plasma
[6] = Pupillometry (pupillary miosis) in healthy volunteers; format: in vivo, human; details: 3-60 mg, p>0.9
Method: as §2
Summary statistics (means, standard deviations, and coefficients of variation) were determined for each dose group for safety laboratory test data, ECG and pharmacokinetic parameters, and pharmacodynamic variables. Categorical variables were analysed using counts and percentages. Dose-proportionality of AUC and Cmax was assessed using linear regression. The effect of dose on pharmacodynamic parameter values over time was assessed using two-factor analysis of variance (ANOVA). Pairwise comparisons (with Tukey-Kramer adjustment) between each dose group to the placebo were conducted at each time point using the least squares estimates obtained from the ANOVA, using SAS Proc Mixed (SAS ver 6.0).

[7] = Pharmacokinetics in opioid-dependent patients, Phase IB study, single dose; details: human, serum; for half-life / Vd/F: opioid-dependent patients
[8] = 60 mg, mean ± SD, Cohort 1 (60 mg)
[9] = 120 mg, range, Cohort 2 (120 mg)
[10] = 180 mg, range, Cohort 3 (180 mg)
[11] = metabolite in plasma after single oral 30 mg noribogaine
[12] = metabolite in plasma after single oral 60 mg noribogaine

## CC[C@H]1CC2C[C@H]3c4[nH]c5ccc(O)cc5c4CCN(C2)C13 [noribogaine]
[1]; 120 mg
  withdrawal symptoms (COWS, OOWS, SOWS), first six hours after dosing: fewer withdrawal symptoms than the other patients
[1]; 180 mg, also longer than 60 mg group
  time to resumption of OST, compared with untreated patients: > 7 h
[1]; 60, 120, 180 mg
  withdrawal symptoms (COWS, OOWS, SOWS), noribogaine versus placebo: Patients administered placebo generally experienced more withdrawal symptoms than patients who were administered noribogaine
[2]; ice water, p>0.9
  duration of hand immersion, each dose group versus placebo (ANOVA): no statistically significant differences
[2]; upon hand removal, p=0.17
  VAS pain scores, each dose group versus placebo (ANOVA): no statistically significant differences
[3]; 60 mg treatment group
  headaches: frequent
[3]; 120 mg and 180 mg dose groups
  headaches: attenuated
[4]; 3 mg dose group, by two subjects
  adverse events reported: five
[4]; 10 mg dose group, single subject
  adverse events reported: one
[4]; 30 mg dose group, single subject
  adverse events reported: one
[4]; all dose groups, all resolved prior to study completion
  intensity of adverse events: mild-moderate
[5]; single oral 3 mg
  CL/F: 41.4 L/h
[5]; single oral 10 mg
  CL/F: 42.3 L/h
[5]; single oral 30 mg
  CL/F: 46.9 L/h
[5]; single oral 60 mg
  CL/F: 34.0 L/h
[6]
  pupil diameter, each dose group versus placebo (ANOVA, baseline adjusted): no statistically significant differences
[7]; 60 mg
  AUC: 1120 to 2550 ng·h/mL
  AUC(0-t): 1090 to 2530 ng·h/mL
  Cmax: 41.3 to 113 ng/mL
  Tmax: 2.5 to 5 h
[7]; [8]
  half-life: 29.3 ± 7.28 h
  Vd/F: 1440 ± 854 L
[7]; 60 mg, range, Cohort 1 (60 mg)
  half-life: 18.3 to 37.3 h
  Vd/F: 620 to 2770 L
[7]; 120 mg
  AUC: 1600 to 5770 ng·h/mL
  AUC(0-t): 1560 to 5640 ng·h/mL
  Cmax: 139 to 230 ng/mL
  Tmax: 0.98 to 4.02 h
[7]; [9]
  half-life: 21.9 to 48.3 h
  Vd/F: 824 to 5240 L
[7]; 180 mg
  AUC: 3730 to 12300 ng·h/mL
  AUC(0-t): 3720 to 10400 ng·h/mL
  Cmax: 205 to 338 ng/mL
  Tmax: 3 to 8 h
[7]; [10]
  half-life: 19.3 to 34.9 h
  Vd/F: 581 to 1610 L

## CC[C@H]1C[C@@H]2C[C@H]3c4[nH]c5ccc(OC6OC(C(=O)O)C(O)C(O)C6O)cc5c4CCN(C2)[C@@H]13 (stereo partly shown) [noribogaine glucuronide]
[5]; [11]
  AUC0-216: 25.7 ng·h/mL
  AUC0-∞: 25.8 ng·h/mL
  Cmax: 1.8 ng/mL
  Tmax: 3.0 h
  t1/2: 20.6 h
[5]; [12]
  AUC0-216: 65.0 ng·h/mL
  AUC0-∞: 67.1 ng·h/mL
  Cmax: 4.1 ng/mL
  Tmax: 3.8 h
  t1/2: 23.1 h
